AC50 data for 18 compounds are collected here from ChEMBL document CHEMBL5291721, “A preclinical secondary pharmacology resource illuminates target-adverse drug reaction associations of marketed drugs” (Nat Commun, 2023).

Structures are written as SMILES.

Test [1] concerns the target T1, Alpha-2A adrenergic receptor (Homo sapiens, UniProt P08913).
T1 sequence (P08913 whole entry): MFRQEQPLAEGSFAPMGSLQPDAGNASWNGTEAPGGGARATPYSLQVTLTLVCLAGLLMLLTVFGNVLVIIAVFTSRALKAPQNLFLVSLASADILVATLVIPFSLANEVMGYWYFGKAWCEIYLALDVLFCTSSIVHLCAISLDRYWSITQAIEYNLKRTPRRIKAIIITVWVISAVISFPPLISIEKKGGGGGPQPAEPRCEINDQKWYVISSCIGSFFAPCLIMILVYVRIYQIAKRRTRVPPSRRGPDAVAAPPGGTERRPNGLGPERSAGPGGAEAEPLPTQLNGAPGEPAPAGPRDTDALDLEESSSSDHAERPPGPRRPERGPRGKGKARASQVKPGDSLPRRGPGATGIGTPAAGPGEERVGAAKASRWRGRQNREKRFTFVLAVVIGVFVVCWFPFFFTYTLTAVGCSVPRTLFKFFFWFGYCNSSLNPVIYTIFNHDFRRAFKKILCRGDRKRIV
Format: functional, cell-based.

Test [2] has as its target T1, Alpha-2A adrenergic receptor. It is filed as functional, cell-based. The source holds these as a separate data set.
Test [3] addresses T2, Muscarinic acetylcholine receptor M1 (Homo sapiens, UniProt P11229).
T2 sequence (P11229 whole entry): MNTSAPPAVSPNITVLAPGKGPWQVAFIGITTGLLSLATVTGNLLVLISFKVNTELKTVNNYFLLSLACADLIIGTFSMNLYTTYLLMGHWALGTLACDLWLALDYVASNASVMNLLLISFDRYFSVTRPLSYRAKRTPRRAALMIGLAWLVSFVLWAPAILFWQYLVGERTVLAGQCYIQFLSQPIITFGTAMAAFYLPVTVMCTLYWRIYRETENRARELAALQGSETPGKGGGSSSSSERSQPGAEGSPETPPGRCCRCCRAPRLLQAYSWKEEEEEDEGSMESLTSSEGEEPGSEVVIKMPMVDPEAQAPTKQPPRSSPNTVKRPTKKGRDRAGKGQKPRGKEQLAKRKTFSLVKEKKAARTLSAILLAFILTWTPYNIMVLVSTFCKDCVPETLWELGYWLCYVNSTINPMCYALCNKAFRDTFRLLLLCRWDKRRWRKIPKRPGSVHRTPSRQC
It is filed as functional.

For test [4], the target named is Muscarinic acetylcholine receptor M3 (Homo sapiens, UniProt P20309).
The target in test [5] is T3, 5-hydroxytryptamine receptor 1A (Homo sapiens, UniProt P08908).
T3 sequence (P08908 whole entry): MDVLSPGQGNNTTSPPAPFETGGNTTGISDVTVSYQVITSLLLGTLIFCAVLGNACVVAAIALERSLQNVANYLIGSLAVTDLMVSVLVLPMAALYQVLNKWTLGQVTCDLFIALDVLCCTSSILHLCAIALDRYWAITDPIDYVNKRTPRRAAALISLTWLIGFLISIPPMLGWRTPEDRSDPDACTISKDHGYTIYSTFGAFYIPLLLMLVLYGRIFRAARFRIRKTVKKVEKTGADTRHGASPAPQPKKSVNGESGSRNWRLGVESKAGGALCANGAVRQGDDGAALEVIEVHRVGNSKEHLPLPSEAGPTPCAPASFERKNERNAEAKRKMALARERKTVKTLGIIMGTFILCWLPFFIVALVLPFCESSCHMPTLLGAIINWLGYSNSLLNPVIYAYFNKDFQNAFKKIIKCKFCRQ
Format: functional, cell-based.

The target in a further test is T4, Thromboxane A2 receptor (Homo sapiens, UniProt P21731).
T4 sequence (P21731 whole entry): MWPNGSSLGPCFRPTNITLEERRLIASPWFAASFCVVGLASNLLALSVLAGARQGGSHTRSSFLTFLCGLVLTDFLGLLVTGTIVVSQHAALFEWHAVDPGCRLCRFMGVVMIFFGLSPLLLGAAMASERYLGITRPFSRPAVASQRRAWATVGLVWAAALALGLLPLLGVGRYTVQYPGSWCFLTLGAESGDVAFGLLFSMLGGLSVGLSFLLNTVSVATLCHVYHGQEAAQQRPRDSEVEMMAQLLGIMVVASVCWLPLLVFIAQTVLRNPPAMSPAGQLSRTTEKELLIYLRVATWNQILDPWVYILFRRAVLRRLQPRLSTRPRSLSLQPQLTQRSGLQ

Test [6] concerns the target cGMP-inhibited 3',5'-cyclic phosphodiesterase 3A (Homo sapiens, UniProt Q14432). Format: functional.
In another test the target is D(3) dopamine receptor (Homo sapiens, UniProt P35462).
Test [7] deals with T5, Gastrin/cholecystokinin type B receptor (Homo sapiens, UniProt P32239).
T5 sequence (P32239 whole entry): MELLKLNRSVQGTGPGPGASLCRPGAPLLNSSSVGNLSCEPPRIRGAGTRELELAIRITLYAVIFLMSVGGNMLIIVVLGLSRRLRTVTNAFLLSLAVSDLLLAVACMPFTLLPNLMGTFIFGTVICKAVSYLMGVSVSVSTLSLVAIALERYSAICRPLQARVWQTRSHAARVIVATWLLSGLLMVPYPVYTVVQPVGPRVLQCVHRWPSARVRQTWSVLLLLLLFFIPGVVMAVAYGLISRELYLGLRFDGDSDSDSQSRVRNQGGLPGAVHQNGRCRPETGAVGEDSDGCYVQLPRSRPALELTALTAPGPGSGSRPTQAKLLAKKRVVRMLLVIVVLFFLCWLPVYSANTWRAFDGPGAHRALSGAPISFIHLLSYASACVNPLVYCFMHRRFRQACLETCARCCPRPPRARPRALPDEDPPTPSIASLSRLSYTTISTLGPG

Test [8] has as its target Voltage-gated inwardly rectifying potassium channel KCNH2 (Homo sapiens, UniProt Q12809). It is filed as functional.
A further test has as its target Mu-type opioid receptor (Homo sapiens, UniProt P35372). Kind of test: biochemical. It is filed as functional.

As usually defined, the AC50 is the concentration at which the activity in the assay is half-maximal. A high value points to activity only at high concentration.
Also: assay procedure not described here.

Chain of cGMP-inhibited 3',5'-cyclic phosphodiesterase 3A (Q14432 whole entry): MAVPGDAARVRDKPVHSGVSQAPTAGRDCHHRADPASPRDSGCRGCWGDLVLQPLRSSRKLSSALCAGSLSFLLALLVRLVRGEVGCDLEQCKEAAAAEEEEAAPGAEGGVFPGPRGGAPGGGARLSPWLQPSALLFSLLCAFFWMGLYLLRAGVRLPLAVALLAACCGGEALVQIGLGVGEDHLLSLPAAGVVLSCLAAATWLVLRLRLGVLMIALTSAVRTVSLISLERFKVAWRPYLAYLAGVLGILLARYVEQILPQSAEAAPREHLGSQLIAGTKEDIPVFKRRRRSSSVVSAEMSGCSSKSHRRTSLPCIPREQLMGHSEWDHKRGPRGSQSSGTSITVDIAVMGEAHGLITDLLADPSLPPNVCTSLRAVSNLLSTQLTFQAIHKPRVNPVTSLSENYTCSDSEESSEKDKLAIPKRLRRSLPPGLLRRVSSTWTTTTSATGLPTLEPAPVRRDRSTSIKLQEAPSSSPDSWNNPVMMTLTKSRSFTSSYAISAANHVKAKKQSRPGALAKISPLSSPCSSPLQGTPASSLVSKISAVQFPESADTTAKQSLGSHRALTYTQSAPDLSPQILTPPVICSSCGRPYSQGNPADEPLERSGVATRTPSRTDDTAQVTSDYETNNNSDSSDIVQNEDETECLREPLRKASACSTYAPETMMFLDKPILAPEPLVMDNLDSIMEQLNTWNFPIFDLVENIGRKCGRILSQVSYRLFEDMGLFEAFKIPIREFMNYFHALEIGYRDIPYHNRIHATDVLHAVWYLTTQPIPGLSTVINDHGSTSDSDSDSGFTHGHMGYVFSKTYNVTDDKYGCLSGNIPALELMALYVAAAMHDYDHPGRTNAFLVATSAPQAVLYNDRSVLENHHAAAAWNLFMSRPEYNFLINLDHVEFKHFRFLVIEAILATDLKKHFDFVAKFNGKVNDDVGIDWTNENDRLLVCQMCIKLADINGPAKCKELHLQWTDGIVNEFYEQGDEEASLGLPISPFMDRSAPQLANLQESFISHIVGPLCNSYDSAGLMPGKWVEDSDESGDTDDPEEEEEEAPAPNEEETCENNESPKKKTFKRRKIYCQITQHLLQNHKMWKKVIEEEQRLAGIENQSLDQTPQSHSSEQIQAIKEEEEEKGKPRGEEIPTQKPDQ
Chain of D(3) dopamine receptor (P35462 whole entry): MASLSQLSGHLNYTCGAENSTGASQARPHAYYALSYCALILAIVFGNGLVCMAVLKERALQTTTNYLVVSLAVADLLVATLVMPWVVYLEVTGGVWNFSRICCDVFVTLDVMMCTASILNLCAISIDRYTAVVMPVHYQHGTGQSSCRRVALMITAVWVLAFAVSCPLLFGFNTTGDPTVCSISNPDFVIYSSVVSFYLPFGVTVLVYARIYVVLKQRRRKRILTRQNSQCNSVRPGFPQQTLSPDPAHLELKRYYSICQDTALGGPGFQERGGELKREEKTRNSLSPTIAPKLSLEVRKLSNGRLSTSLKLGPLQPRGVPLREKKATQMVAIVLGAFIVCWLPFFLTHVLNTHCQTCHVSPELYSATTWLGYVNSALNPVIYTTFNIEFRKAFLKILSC
Chain of Mu-type opioid receptor (P35372 whole entry): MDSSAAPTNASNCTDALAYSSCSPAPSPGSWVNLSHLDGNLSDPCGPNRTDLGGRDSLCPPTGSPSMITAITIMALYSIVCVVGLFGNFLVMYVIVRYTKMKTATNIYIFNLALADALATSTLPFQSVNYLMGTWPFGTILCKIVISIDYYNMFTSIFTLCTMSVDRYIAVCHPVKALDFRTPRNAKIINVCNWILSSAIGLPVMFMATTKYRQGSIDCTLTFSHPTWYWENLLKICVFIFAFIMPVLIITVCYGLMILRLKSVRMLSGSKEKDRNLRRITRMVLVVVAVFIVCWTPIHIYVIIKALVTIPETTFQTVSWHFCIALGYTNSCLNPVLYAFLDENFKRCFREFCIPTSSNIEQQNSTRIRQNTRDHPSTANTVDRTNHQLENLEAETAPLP
Chain of Muscarinic acetylcholine receptor M3 (P20309 whole entry): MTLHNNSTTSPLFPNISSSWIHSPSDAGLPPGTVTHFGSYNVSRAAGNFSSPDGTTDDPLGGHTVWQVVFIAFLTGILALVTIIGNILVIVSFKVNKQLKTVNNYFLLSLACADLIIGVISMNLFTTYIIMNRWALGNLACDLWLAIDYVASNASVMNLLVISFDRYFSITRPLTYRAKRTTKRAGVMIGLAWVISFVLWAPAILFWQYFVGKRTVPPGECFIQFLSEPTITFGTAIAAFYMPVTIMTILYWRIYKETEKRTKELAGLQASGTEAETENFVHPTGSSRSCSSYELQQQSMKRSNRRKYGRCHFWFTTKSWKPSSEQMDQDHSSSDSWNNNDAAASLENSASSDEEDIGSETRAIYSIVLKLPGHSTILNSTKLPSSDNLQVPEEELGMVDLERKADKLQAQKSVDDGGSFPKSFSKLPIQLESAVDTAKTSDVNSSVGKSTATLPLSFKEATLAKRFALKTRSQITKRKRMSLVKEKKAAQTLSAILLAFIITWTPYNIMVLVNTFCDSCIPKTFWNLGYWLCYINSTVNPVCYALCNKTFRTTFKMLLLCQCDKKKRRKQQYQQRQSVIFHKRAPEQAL
Chain of Voltage-gated inwardly rectifying potassium channel KCNH2 (Q12809 whole entry): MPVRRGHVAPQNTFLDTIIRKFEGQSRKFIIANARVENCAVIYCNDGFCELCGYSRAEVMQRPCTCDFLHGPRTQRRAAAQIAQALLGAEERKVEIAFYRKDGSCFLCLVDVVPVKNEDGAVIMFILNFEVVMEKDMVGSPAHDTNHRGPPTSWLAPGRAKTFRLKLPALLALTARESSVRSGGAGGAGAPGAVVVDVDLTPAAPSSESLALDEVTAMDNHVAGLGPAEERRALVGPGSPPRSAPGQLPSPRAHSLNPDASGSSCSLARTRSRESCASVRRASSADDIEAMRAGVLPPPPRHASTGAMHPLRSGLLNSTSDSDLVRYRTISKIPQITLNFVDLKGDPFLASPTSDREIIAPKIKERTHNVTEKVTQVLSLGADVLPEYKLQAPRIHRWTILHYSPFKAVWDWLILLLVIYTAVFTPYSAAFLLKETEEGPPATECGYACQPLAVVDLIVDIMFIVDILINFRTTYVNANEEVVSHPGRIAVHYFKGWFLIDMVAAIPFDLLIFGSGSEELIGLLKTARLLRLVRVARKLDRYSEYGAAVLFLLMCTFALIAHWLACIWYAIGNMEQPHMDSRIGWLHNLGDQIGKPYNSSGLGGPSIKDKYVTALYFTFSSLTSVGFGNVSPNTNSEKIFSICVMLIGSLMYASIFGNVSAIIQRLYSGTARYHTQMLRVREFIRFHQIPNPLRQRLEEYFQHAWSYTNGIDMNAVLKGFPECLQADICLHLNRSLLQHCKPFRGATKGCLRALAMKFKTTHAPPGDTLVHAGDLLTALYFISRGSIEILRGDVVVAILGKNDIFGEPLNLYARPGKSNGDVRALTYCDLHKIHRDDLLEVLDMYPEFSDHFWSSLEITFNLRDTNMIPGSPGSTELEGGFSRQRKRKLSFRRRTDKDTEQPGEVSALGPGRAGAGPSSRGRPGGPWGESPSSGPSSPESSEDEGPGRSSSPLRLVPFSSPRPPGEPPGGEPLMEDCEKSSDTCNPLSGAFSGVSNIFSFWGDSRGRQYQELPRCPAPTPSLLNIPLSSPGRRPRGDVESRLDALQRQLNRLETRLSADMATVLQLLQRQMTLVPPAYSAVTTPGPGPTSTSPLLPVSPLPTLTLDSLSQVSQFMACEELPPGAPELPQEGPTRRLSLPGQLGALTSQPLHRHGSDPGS

As to `COc1cc2c(cc1OC)C(CCc1ccc(Cl)cc1)N(C)CC2` (stereo not given) [METHOPHOLINE], the AC50 is above 10 µM in [1]; above 10 µM in [2]; above 10 µM in test [3]; above 30 µM in [4]; above 10 µM in test [5]; above 30 µM on Thromboxane A2 receptor. For the same compound, the AC50 (in test [6]; at D(3) dopamine receptor) was above 30 µM throughout.

`O=C(O)CCNC(=O)c1ccccc1` [BETAMIPRON]: the AC50 (in test [1]; in test [2]; in test [7]; in test [5]; in [8]; on Mu-type opioid receptor) was above 30 µM in each case. In addition, the AC50 (on Thromboxane A2 receptor; in test [6]; on D(3) dopamine receptor) was above 30 µM each time.

Consider `O=C1CN=C(c2ccccc2)c2cc([N+](=O)[O-])ccc2N1` [NITRAZEPAM], for which the AC50 in [1] is above 10 µM; in test [2], above 10 µM; in test [5], above 10 µM; in test [8] it was above 30 µM; on Mu-type opioid receptor it was above 30 µM; on Thromboxane A2 receptor, above 10 µM. Further, the AC50 (in test [6]; at D(3) dopamine receptor) was above 30 µM each time.

As to `CN(C(=O)c1c(O)c2ccccc2n(C)c1=O)c1ccccc1` [ROQUINIMEX], the AC50 in test [3] and in [6] was above 30 µM throughout.

As to `OCc1cc(C(O)CNCCCCCCOCCCCc2ccccc2)ccc1O` (stereo not given) [SALMETEROL], the AC50 in [1] was above 10 µM; in test [2] it was above 10 µM; in test [7], above 30 µM; in test [3], above 10 µM; in test [4], above 30 µM; in test [5] it was 5.4 µM. Further, the AC50 is 8.1 µM in [8], above 30 µM at Thromboxane A2 receptor, above 30 µM in test [6] and 8.9 µM at D(3) dopamine receptor.

Turning to `Nc1cc(-c2ccncc2)c[nH]c1=O` [INAMRINONE], the AC50 was above 10 µM in test [1]; above 10 µM in [2]; above 30 µM in test [7]; above 10 µM in test [5]; above 30 µM in test [8]; above 30 µM at Thromboxane A2 receptor. At D(3) dopamine receptor, this compound gave an AC50 above 30 µM.

As to `Cn1cnc2c(F)c(Nc3ccc(Br)cc3Cl)c(C(=O)NOCCO)cc21` [SELUMETINIB], the AC50 is above 10 µM in test [3], above 30 µM in test [8], above 30 µM at Thromboxane A2 receptor and above 30 µM in test [6].

Consider `CCN(CC)CCN1C(=O)CN=C(c2ccccc2F)c2cc(Cl)ccc21` [FLURAZEPAM], for which the AC50 is above 10 µM in [1]; above 10 µM in test [2]; above 30 µM in [7]; above 10 µM in test [3]; above 30 µM in test [4]; above 30 µM in [5]. Moreover, the AC50 was 0.896 µM in [8], above 30 µM on Thromboxane A2 receptor, above 30 µM in test [6] and 8.4 µM at D(3) dopamine receptor.

`CC(=O)[C@]1(O)Cc2c(O)c3c(c(O)c2[C@@H](O[C@H]2C[C@H](N)[C@H](O)[C@H](C)O2)C1)C(=O)c1ccccc1C3=O` [IDARUBICIN]: the AC50 in [7] was above 30 µM; in test [8], 20.7 µM; on Mu-type opioid receptor, above 30 µM; on Thromboxane A2 receptor, above 30 µM; in test [6], above 30 µM; at D(3) dopamine receptor, 17 µM.

As to `C/C(=C\C(=O)OCCCCCCCCC(=O)O)C[C@@H]1OC[C@H](C[C@@H]2O[C@H]2[C@@H](C)[C@H](C)O)[C@@H](O)[C@H]1O` [MUPIROCIN], the AC50 in [1] was above 10 µM; in test [2], above 10 µM; in test [3] it was above 10 µM; in test [4] it was above 30 µM; in test [5], above 10 µM; in [8], above 30 µM. Besides, the AC50 at Thromboxane A2 receptor is above 10 µM; in test [6], above 30 µM; at D(3) dopamine receptor, above 30 µM.

Compound `O=C(O)CCCCC1CCSS1` (stereo not drawn) [LIPOIC ACID, ALPHA] displayed an AC50 in [8] above 30 µM.

As to `Cc1ncc2n1-c1ccc(Cl)cc1C(c1ccccc1F)=NC2` [MIDAZOLAM], the AC50 in test [1] was above 10 µM; in test [2] it was above 10 µM; in test [7], above 30 µM; in test [3], above 10 µM; in test [4] it was above 30 µM; in test [5] it was above 30 µM. Further, the AC50 is above 30 µM in test [8], above 30 µM on Thromboxane A2 receptor, above 30 µM in test [6] and 10 µM on D(3) dopamine receptor.

For the compound `Oc1ccc2c(c1)[C@@]13CCCC[C@@]1(O)[C@@H](C2)N(CC1CCC1)CC3` [BUTORPHANOL], the AC50 in [1], in test [2], in [7], in [3], in test [4] and in test [5] was above 30 µM throughout. Further, the values for the AC50 (in test [8]; in [6]; on D(3) dopamine receptor) were 12 µM, above 30 µM and above 30 µM, respectively.

With `COc1cc2ncnc(Nc3ccc(F)c(Cl)c3)c2cc1NC(=O)/C=C/CN1CCCCC1` [DACOMITINIB ANHYDROUS], the figures for the AC50 in test [3] and in [6] were 11 µM and above 30 µM, respectively.

With `CC(=O)OCC(=O)[C@@]1(O)[C@H](C)C[C@H]2[C@@H]3CCC4=CC(=O)C=C[C@]4(C)[C@@]3(F)[C@@H](O)C[C@@]21C` [DEXAMETHASONE ACETATE], the AC50 in [1] is above 10 µM; in [2], above 10 µM; in test [7], above 30 µM; in [3], above 10 µM; in test [4] it was above 30 µM; in [5], above 10 µM. Further, the AC50 was above 30 µM in test [8], 16 µM at Thromboxane A2 receptor, above 30 µM in test [6] and above 30 µM on D(3) dopamine receptor.

For `Cn1c(=O)cc(N2CCC[C@@H](N)C2)n(Cc2ccccc2C#N)c1=O` [ALOGLIPTIN], the AC50 in test [7] is above 30 µM; in [3], above 10 µM; at Thromboxane A2 receptor, above 30 µM; in test [6], above 30 µM; at D(3) dopamine receptor, above 10 µM.

`Nc1c2ccccc2nc2ccccc12` [AMINACRINE] showed an AC50 in [8] of 12 µM.

`O=C1CN=C(c2ccccn2)c2cc(Br)ccc2N1` [BROMAZEPAM]: the AC50 in test [1] was above 10 µM; in test [2] it was above 10 µM; in test [3], above 10 µM; in test [4], above 30 µM; in test [5], above 10 µM; in test [8] it was above 30 µM. The AC50 on Thromboxane A2 receptor was above 10 µM; in test [6], above 30 µM; at D(3) dopamine receptor, above 30 µM.
